Source: ChEMBL document CHEMBL4507260 (2021)

Tests used:
Details in all cases: Compound concentration 1000.0 nM
[1] = biological target: Interleukin-1 receptor-associated kinase 1 (Homo sapiens) (UniProt P51617)
[2] = biological target: Ephrin type-B receptor 3 (Homo sapiens) (UniProt P54753)
[3] = biological target: Receptor-type tyrosine-protein kinase FLT3 (Homo sapiens) (UniProt P36888)
[4] = biological target: NUAK family SNF1-like kinase 1 (Homo sapiens) (UniProt O60285)
[5] = tested on: Mast/stem cell growth factor receptor Kit (Homo sapiens), P10721 [L576P]
[6] = biological target: Cyclin-dependent kinase 18 (Homo sapiens) (UniProt Q07002)
Chain of Cyclin-dependent kinase 18 (Homo sapiens) (Q07002 whole entry): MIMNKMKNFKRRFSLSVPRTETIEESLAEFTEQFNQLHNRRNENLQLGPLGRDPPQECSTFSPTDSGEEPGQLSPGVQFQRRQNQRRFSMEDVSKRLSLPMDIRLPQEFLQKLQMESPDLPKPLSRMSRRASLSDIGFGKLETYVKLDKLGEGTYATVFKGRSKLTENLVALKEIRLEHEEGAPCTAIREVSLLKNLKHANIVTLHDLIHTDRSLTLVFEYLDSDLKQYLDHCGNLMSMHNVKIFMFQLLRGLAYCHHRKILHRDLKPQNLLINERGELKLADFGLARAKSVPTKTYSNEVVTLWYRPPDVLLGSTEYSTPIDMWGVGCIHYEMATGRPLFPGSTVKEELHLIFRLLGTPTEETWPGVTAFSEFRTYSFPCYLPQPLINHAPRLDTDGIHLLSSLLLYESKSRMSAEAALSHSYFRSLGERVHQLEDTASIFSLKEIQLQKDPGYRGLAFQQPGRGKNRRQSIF

[7] = biological target: Muscle, skeletal receptor tyrosine-protein kinase (Homo sapiens) (UniProt O15146)
[8] = biological target: Serine/threonine-protein kinase WNK1 (Homo sapiens) (UniProt Q9H4A3)
[9] = biological target: Serine/threonine-protein kinase/endoribonuclease IRE1 (Homo sapiens) (UniProt O75460)
[10] = biological target: Serine/threonine-protein kinase NLK (Homo sapiens) (UniProt Q9UBE8)
[11] = biological target: Tyrosine-protein kinase Lck (Homo sapiens) (UniProt P06239)
[12] = tested on: Proto-oncogene tyrosine-protein kinase receptor Ret (Homo sapiens), P07949 [V804M]
[13] = biological target: Serine/threonine-protein kinase TAO3 (Homo sapiens) (UniProt Q9H2K8)
[14] = biological target: Mitotic checkpoint serine/threonine-protein kinase BUB1 (Homo sapiens) (UniProt O43683)
[15] = tested on: Tyrosine-protein kinase ABL1 (Homo sapiens), P00519 [T315I]
[16] = biological target: Ribosomal protein S6 kinase alpha-3 (Homo sapiens) (UniProt P51812)
Chain of Ribosomal protein S6 kinase alpha-3 (Homo sapiens) (P51812 whole entry): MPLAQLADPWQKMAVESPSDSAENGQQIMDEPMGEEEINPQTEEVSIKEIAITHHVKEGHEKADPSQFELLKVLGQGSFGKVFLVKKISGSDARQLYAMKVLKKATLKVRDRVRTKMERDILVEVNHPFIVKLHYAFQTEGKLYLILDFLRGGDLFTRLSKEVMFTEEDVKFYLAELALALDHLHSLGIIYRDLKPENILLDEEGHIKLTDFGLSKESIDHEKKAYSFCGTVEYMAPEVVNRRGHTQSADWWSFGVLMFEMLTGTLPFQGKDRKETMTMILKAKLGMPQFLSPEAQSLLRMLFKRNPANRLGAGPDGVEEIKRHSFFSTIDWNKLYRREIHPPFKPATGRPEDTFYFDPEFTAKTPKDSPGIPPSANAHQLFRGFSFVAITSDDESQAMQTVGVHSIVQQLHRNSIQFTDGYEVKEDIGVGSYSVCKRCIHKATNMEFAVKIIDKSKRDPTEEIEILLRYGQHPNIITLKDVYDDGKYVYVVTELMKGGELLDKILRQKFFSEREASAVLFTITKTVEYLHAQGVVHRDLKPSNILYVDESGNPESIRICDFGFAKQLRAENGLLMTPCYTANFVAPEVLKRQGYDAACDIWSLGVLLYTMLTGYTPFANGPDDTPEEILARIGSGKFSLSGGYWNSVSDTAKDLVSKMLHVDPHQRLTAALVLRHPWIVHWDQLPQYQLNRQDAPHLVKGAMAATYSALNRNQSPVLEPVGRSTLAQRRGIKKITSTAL

[17] = tested on: Mast/stem cell growth factor receptor Kit (Homo sapiens), P10721 [V559D]
[18] = biological target: Activin receptor type-2A (Homo sapiens) (UniProt P27037)
[19] = biological target: Serine/threonine-protein kinase STK11 (Homo sapiens) (UniProt Q15831)
Chain of Serine/threonine-protein kinase STK11 (Homo sapiens) (Q15831 whole entry): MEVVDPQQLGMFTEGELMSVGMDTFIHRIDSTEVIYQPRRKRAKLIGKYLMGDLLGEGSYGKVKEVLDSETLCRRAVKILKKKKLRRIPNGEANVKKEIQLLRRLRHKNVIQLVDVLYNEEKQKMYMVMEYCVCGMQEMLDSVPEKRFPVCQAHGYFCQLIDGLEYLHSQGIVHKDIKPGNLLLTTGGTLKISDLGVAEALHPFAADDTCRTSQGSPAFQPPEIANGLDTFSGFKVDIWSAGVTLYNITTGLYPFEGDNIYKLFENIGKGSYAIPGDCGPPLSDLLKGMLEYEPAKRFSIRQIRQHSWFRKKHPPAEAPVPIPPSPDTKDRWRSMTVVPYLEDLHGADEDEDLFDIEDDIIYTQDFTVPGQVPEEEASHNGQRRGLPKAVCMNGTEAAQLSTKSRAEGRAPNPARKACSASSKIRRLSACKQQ

[20] = biological target: Serine/threonine-protein kinase D3 (Homo sapiens) (UniProt O94806)
Chain of Serine/threonine-protein kinase D3 (Homo sapiens) (O94806 whole entry): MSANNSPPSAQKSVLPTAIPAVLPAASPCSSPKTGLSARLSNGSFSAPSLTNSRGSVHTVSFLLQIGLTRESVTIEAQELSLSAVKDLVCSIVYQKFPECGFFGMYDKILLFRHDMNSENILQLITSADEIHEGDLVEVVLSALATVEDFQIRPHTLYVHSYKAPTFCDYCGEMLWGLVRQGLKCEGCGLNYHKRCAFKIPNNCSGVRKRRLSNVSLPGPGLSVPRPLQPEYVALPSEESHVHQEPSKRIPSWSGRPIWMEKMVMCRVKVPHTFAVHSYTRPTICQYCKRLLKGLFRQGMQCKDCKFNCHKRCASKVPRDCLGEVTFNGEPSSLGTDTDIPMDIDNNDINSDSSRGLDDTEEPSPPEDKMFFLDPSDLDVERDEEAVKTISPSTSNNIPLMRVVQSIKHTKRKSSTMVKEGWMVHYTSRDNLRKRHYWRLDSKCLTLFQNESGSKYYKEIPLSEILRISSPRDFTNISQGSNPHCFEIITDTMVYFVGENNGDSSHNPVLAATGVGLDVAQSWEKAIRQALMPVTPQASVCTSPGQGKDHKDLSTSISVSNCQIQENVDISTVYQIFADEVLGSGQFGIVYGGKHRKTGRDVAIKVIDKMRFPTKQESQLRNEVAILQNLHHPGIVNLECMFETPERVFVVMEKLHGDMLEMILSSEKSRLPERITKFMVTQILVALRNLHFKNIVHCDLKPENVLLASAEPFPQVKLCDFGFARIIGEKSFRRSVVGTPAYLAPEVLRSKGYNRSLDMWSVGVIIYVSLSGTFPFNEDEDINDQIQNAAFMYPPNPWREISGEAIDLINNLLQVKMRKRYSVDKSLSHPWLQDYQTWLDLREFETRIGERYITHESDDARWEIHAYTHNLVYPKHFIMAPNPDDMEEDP

[21] = biological target: Insulin-like growth factor 1 receptor (Homo sapiens) (UniProt P08069)
[22] = biological target: Tyrosine-protein kinase ABL1 (Homo sapiens) (UniProt P00519)
[23] = biological target: Cyclin-dependent kinase 7 (Homo sapiens) (UniProt P50613)
[24] = tested on: Tyrosine-protein kinase ABL1 (Homo sapiens), P00519 [T315I]; remark: listed apart in the source
[25] = biological target: Protein kinase C eta type (Homo sapiens) (UniProt P24723)
[26] = biological target: Serine/threonine-protein kinase 35 (Homo sapiens) (UniProt Q8TDR2)
[27] = tested on: Hepatocyte growth factor receptor (Homo sapiens), P08581 [M1250T]
[28] = biological target: Ribosomal protein S6 kinase alpha-3 (Homo sapiens) (UniProt P51812); remark: listed apart in the source
[29] = biological target: Macrophage colony-stimulating factor 1 receptor (Homo sapiens) (UniProt P07333)
[30] = biological target: Cyclin-dependent kinase 5 (Homo sapiens) (UniProt Q00535)
Chain of Cyclin-dependent kinase 5 (Homo sapiens) (Q00535 whole entry, looked up): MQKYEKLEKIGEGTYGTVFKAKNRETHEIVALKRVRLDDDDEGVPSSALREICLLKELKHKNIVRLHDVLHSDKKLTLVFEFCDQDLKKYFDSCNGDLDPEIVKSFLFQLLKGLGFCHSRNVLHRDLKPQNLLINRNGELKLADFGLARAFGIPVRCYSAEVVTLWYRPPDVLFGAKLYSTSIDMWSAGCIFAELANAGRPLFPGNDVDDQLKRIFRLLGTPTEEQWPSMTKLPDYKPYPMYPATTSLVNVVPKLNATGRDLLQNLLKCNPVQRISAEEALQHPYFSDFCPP

[31] = tested on: Epidermal growth factor receptor (Homo sapiens), P00533 [UNDEFINED MUTATION]
[32] = biological target: Activin receptor type-1-like (Homo sapiens) (UniProt P37023)
[33] = biological target: Phosphatidylinositol 4,5-bisphosphate 3-kinase catalytic subunit beta isoform (Homo sapiens) (UniProt P42338)
[34] = biological target: Serine/threonine-protein kinase LATS1 (Homo sapiens) (UniProt O95835)
[35] = biological target: Ribosomal protein S6 kinase alpha-1 (Homo sapiens) (UniProt Q15418)
[36] = biological target: G protein-coupled receptor kinase 4 (Homo sapiens) (UniProt P32298)
[37] = biological target: Calcium/calmodulin-dependent protein kinase type II subunit delta (Homo sapiens) (UniProt Q13557)
[38] = biological target: Tyrosine-protein kinase receptor UFO (Homo sapiens) (UniProt P30530)
Chain of Tyrosine-protein kinase receptor UFO (Homo sapiens) (P30530 whole entry): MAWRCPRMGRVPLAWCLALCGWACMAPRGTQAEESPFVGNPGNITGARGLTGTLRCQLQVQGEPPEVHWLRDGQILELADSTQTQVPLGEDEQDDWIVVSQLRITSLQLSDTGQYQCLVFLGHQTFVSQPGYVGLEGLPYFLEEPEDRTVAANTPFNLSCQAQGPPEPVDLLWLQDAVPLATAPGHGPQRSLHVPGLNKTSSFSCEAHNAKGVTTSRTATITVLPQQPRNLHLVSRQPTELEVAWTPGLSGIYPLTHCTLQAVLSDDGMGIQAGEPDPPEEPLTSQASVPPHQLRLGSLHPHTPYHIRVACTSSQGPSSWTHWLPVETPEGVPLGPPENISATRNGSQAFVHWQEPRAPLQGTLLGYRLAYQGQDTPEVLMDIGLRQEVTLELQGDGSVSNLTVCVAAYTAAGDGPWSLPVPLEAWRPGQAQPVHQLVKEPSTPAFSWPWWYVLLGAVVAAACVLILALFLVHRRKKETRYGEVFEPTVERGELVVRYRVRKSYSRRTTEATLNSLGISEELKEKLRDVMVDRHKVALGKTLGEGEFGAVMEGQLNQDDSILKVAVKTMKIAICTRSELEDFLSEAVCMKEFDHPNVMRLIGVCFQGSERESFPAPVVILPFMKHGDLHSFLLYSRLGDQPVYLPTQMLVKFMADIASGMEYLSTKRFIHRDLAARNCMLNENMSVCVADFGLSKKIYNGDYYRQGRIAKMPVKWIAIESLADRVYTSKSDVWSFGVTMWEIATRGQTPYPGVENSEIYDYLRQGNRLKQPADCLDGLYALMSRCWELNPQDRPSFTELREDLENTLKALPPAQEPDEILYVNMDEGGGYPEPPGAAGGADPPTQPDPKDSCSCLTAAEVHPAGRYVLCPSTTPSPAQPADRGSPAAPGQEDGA

[39] = biological target: Serine/threonine-protein kinase ULK2 (Homo sapiens) (UniProt Q8IYT8)
[40] = tested on: Epidermal growth factor receptor (Homo sapiens), P00533 [L858R]
[41] = biological target: Cyclin-dependent kinase 8 (Homo sapiens) (UniProt P49336)
[42] = biological target: Serine/threonine-protein kinase Nek4 (Homo sapiens) (UniProt P51957)
[43] = biological target: Cyclin-dependent kinase 4 (Homo sapiens) (UniProt P11802)
Chain of Cyclin-dependent kinase 4 (Homo sapiens) (P11802 whole entry): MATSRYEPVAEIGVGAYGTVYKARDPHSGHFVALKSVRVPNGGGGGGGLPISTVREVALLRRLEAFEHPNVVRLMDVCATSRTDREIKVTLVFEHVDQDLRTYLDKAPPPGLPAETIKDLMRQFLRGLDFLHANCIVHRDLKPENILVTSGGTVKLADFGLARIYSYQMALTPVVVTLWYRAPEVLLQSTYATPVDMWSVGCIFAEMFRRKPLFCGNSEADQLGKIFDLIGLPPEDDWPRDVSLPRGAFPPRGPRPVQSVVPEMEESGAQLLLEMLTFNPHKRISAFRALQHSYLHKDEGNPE

[44] = tested on: ALK tyrosine kinase receptor (Homo sapiens), Q9UM73 [C1156Y]
[45] = biological target: Focal adhesion kinase 1 (Homo sapiens) (UniProt Q05397)

Chain of Ephrin type-B receptor 3 (Homo sapiens) (P54753 whole entry): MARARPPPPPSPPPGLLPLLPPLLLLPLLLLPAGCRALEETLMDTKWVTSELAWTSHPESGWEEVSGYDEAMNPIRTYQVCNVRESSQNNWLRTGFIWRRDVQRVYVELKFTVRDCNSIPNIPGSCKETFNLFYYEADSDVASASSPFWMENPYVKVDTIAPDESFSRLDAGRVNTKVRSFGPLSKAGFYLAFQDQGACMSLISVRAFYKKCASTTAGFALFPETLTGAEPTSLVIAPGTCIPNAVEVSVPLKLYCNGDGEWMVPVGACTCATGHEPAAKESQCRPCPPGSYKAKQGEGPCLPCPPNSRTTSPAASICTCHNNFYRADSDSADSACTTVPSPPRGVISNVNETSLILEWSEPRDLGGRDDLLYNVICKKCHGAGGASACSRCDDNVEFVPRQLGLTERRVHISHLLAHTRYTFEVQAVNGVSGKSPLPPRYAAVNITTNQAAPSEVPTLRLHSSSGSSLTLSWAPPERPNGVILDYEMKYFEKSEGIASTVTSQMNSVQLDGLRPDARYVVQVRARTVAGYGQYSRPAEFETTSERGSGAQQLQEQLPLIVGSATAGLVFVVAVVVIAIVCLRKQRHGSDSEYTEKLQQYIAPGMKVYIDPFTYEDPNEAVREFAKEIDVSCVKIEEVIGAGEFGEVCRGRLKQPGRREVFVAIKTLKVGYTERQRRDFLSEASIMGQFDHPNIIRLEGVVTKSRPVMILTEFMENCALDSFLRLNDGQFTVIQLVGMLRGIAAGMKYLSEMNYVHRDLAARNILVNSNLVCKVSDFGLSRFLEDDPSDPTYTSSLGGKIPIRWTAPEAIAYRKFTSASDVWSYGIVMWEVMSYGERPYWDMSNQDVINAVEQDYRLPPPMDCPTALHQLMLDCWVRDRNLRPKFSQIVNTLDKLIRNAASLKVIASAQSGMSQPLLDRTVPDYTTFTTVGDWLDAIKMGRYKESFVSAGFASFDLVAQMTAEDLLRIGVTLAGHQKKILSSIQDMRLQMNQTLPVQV

## CSc1cccnc1N1CCN(Cc2nc3ccccc3[nH]2)CC1 [A-769]
[1]
  residual activity: 73%
[2]
  residual activity: 93%
[3]
  residual activity: 100%
[4]
  residual activity: 100%
[5]
  residual activity: 92%
[6]
  residual activity: 100%
[7]
  residual activity: 100%
[8]
  residual activity: 100%
[9]
  residual activity: 70%
[10]
  residual activity: 100%
[11]
  residual activity: 100%
[12]
  residual activity: 100%
[13]
  residual activity: 93%
[14]
  residual activity: 90%
[15]
  residual activity: 99%
[16]
  residual activity: 77%
[17]
  residual activity: 96%
[18]
  residual activity: 69%
[19]
  residual activity: 100%
[20]
  residual activity: 100%
[21]
  residual activity: 100%
[22]
  residual activity: 78%
[23]
  residual activity: 61%
[24]
  residual activity: 93%
[25]
  residual activity: 100%
[26]
  residual activity: 100%
[27]
  residual activity: 98%
[28]
  residual activity: 83%
[29]
  residual activity: 100%
[30]
  residual activity: 99%
[31]
  residual activity: 100%
[32]
  residual activity: 100%
[33]
  residual activity: 74%
[34]
  residual activity: 100%
[35]
  residual activity: 100%
[36]
  residual activity: 88%
[37]
  residual activity: 100%
[38]
  residual activity: 100%
[39]
  residual activity: 94%
[40]
  residual activity: 100%
[41]
  residual activity: 87%
[42]
  residual activity: 88%
[43]
  residual activity: 84%
[44]
  residual activity: 93%
[45]
  residual activity: 100%

## c1ccc(N2CCN(Cc3nc4ccccc4[nH]3)CC2)nc1 [ABT-724]
[1]
  residual activity: 100%
[2]
  residual activity: 100%
[3]
  residual activity: 100%
[4]
  residual activity: 89%
[5]
  residual activity: 100%
[6]
  residual activity: 94%
[7]
  residual activity: 100%
[8]
  residual activity: 100%
[9]
  residual activity: 100%
[10]
  residual activity: 100%
[11]
  residual activity: 100%
[12]
  residual activity: 100%
[13]
  residual activity: 86%
[14]
  residual activity: 100%
[15]
  residual activity: 100%
[16]
  residual activity: 100%
[17]
  residual activity: 100%
[18]
  residual activity: 100%
[19]
  residual activity: 70%
[20]
  residual activity: 100%
[21]
  residual activity: 100%
[22]
  residual activity: 100%
[23]
  residual activity: 48%
[24]
  residual activity: 100%
[25]
  residual activity: 89%
[26]
  residual activity: 100%
[27]
  residual activity: 100%
[28]
  residual activity: 100%
[29]
  residual activity: 98%
[30]
  residual activity: 100%
[31]
  residual activity: 90%
[32]
  residual activity: 95%
[33]
  residual activity: 100%
[34]
  residual activity: 100%
[35]
  residual activity: 100%
[36]
  residual activity: 100%
[37]
  residual activity: 91%
[38]
  residual activity: 100%
[39]
  residual activity: 100%
[40]
  residual activity: 100%
[41]
  residual activity: 100%
[42]
  residual activity: 100%
[43]
  residual activity: 100%
[44]
  residual activity: 100%
[45]
  residual activity: 86%
